Data taken from patent US8802597B2, “Herbicidal pyrimidines” (E I du Pont de Nemours and Company, priority 2003, dated 2014).
Like-named read-outs stand apart in the source and are kept apart here.

What was measured:
Experiment in all cases: Test A pre/postemergence
Assay type in all cases: in vivo
[1] = system: barnyardgrass (Echinochloa crus-galli); settings: for pest or weed control at 125 g/ha / pest or weed control at 500 g/ha: Echinochloa crus-galli, 240 h, read-out: Plant response rating, Barnyardgrass
How it was run: (§1)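 After planting in loam and sand, species received test chemical as preemergence soil spray; postemergence spray went on 2–10 cm plants at 1–2 leaves at the same time. Evaluation: visual injury, ~10 d, 0 no effect to 100 complete control.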

[2] = system: velvetleaf (Abutilon theophrasti); settings: for pest or weed control at 125 g/ha / pest or weed control at 500 g/ha: Abutilon theophrasti, 240 h, read-out: Plant response rating, Velvetleaf
How it was run: as §1

[3] = system: giant foxtail (Setaria faberi); settings: for pest or weed control at 125 g/ha / pest or weed control at 500 g/ha: Setaria faberi, 240 h, read-out: Plant response rating, Foxtail, Giant
How it was run: as §1

[4] = system: redroot pigweed (Amaranthus retroflexus); settings: for pest or weed control at 125 g/ha / pest or weed control at 500 g/ha: Amaranthus retroflexus, 240 h, read-out: Plant response rating, Pigweed
How it was run: as §1

[5] = system: crabgrass (Digitaria sanguinalis); settings: for pest or weed control at 125 g/ha / pest or weed control at 500 g/ha: Digitaria sanguinalis, 240 h, read-out: Plant response rating, Crabgrass
How it was run: as §1

[6] = system: morningglory (Ipomoea spp.); settings: for pest or weed control at 125 g/ha / pest or weed control at 500 g/ha: Ipomoea, 240 h, read-out: Plant response rating, Morningglory
How it was run: as §1

[7] = Postemergence, 125 g ai/ha, 0 to 100 scale (0 no effect, 100 complete control)
[8] = Postemergence, 500 g ai/ha, 0 to 100 scale (0 no effect, 100 complete control)
[9] = Preemergence, 125 g ai/ha, 0 to 100 scale where 0 is no effect and 100 is complete control, approximately ten days
[10] = Preemergence, 500 g ai/ha, 0 to 100 scale where 0 is no effect and 100 is complete control, approximately ten days
[11] = post-emergence, Postemergence, 125 g ai/ha, 0 to 100 scale (0 no effect, 100 complete control)
[12] = post-emergence, Postemergence, 500 g ai/ha, 0 to 100 scale (0 no effect, 100 complete control)
[13] = pre-emergence, Preemergence, 125 g ai/ha, 0 to 100 scale where 0 is no effect and 100 is complete control, approximately ten days
[14] = pre-emergence, Preemergence, 500 g ai/ha, 0 to 100 scale where 0 is no effect and 100 is complete control, approximately ten days

## Cc1ccc(-c2nc(N)c(Cl)c(C(=O)O)n2)cc1 [Compound 91]
[1]; [7]
  Plant response rating, Barnyardgrass: 75
[1]; [8]
  Plant response rating, Barnyardgrass: 90
[1]; [9]
  Plant response rating, Barnyardgrass: 5
[1]; [10]
  Plant response rating, Barnyardgrass: 80
[2]; [7]
  Plant response rating, Velvetleaf: 75
[2]; [8]
  Plant response rating, Velvetleaf: 95
[2]; [9]
  Plant response rating, Velvetleaf: 80
[2]; [10]
  Plant response rating, Velvetleaf: 100
[3]; [7]
  Plant response rating, Foxtail, Giant: 5
[3]; [8]
  Plant response rating, Foxtail, Giant: 75
[3]; [9]
  Plant response rating, Foxtail, Giant: 0
[3]; [10]
  Plant response rating, Foxtail, Giant: 25
[4]; [7]
  Plant response rating, Pigweed: 55
[4]; [8]
  Plant response rating, Pigweed: 100
[4]; [9]
  Plant response rating, Pigweed: 100
[4]; [10]
  Plant response rating, Pigweed: 100
[5]; [7]
  Plant response rating, Crabgrass: 5
[5]; [8]
  Plant response rating, Crabgrass: 15
[5]; [9]
  Plant response rating, Crabgrass: 25
[5]; [10]
  Plant response rating, Crabgrass: 75
[6]; [7]
  Plant response rating, Morningglory: 5
[6]; [8]
  Plant response rating, Morningglory: 30
[6]; [9]
  Plant response rating, Morningglory: 5
[6]; [10]
  Plant response rating, Morningglory: 50

## COC(=O)c1nc(-c2ccc(Br)cc2)nc(N)c1Cl [Compound 96, methyl 6-amino-2-(4-bromophenyl)-5-chloro-4-pyrimidinecarboxylate]
[1]; [11]
  pest or weed control at 125 g/ha: 20%
[1]; [12]
  pest or weed control at 500 g/ha: 25%
[1]; [13]
  pest or weed control at 125 g/ha: 5%
[1]; [14]
  pest or weed control at 500 g/ha: 10%
[2]; [11]
  pest or weed control at 125 g/ha: 80%
[2]; [12]
  pest or weed control at 500 g/ha: 85%
[2]; [13]
  pest or weed control at 125 g/ha: 65%
[2]; [14]
  pest or weed control at 500 g/ha: 80%
[3]; [11]
  pest or weed control at 125 g/ha: 25%
[3]; [12]
  pest or weed control at 500 g/ha: 35%
[3]; [13]
  pest or weed control at 125 g/ha: 5%
[3]; [14]
  pest or weed control at 500 g/ha: 10%
[4]; [11]
  pest or weed control at 125 g/ha: 70%
[4]; [12]
  pest or weed control at 500 g/ha: 85%
[4]; [13]
  pest or weed control at 125 g/ha: 80%
[4]; [14]
  pest or weed control at 500 g/ha: 80%
[5]; [11]
  pest or weed control at 125 g/ha: 5%
[5]; [12]
  pest or weed control at 500 g/ha: 20%
[5]; [13]
  pest or weed control at 125 g/ha: 50%
[5]; [14]
  pest or weed control at 500 g/ha: 65%
[6]; [11]
  pest or weed control at 125 g/ha: 60%
[6]; [12]
  pest or weed control at 500 g/ha: 65%
[6]; [13]
  pest or weed control at 125 g/ha: 15%
[6]; [14]
  pest or weed control at 500 g/ha: 80%

## Nc1nc(C2CC2)nc(C(=O)[O-])c1Br.[Na+] [Compound 113, 6-amino-5-bromo-2-cyclopropyl-4-pyrimidinecarboxylic acid monosodium salt]
[1]; [11]
  pest or weed control at 125 g/ha: 55%
[1]; [12]
  pest or weed control at 500 g/ha: 90%
[1]; [13]
  pest or weed control at 125 g/ha: 25%
[1]; [14]
  pest or weed control at 500 g/ha: 80%
[2]; [11]
  pest or weed control at 125 g/ha: 80%
[2]; [12]
  pest or weed control at 500 g/ha: 95%
[2]; [13]
  pest or weed control at 125 g/ha: 65%
[2]; [14]
  pest or weed control at 500 g/ha: 95%
[3]; [11]
  pest or weed control at 125 g/ha: 65%
[3]; [12]
  pest or weed control at 500 g/ha: 85%
[3]; [13]
  pest or weed control at 125 g/ha: 15%
[3]; [14]
  pest or weed control at 500 g/ha: 80%
[4]; [11]
  pest or weed control at 125 g/ha: 80%
[4]; [12]
  pest or weed control at 500 g/ha: 90%
[4]; [13]
  pest or weed control at 125 g/ha: 80%
[4]; [14]
  pest or weed control at 500 g/ha: 90%
[5]; [11]
  pest or weed control at 125 g/ha: 25%
[5]; [12]
  pest or weed control at 500 g/ha: 55%
[5]; [13]
  pest or weed control at 125 g/ha: 15%
[5]; [14]
  pest or weed control at 500 g/ha: 70%
[6]; [11]
  pest or weed control at 125 g/ha: 90%
[6]; [12]
  pest or weed control at 500 g/ha: 90%
[6]; [13]
  pest or weed control at 125 g/ha: 90%
[6]; [14]
  pest or weed control at 500 g/ha: 100%

## COC(=O)c1nc(-c2ccc(I)cc2)nc(N)c1Br [Compound 128]
[1]; [7]
  Plant response rating, Barnyardgrass: 0
[1]; [8]
  Plant response rating, Barnyardgrass: 0
[1]; [9]
  Plant response rating, Barnyardgrass: 0
[1]; [10]
  Plant response rating, Barnyardgrass: 0
[2]; [7]
  Plant response rating, Velvetleaf: 65
[2]; [8]
  Plant response rating, Velvetleaf: 80
[2]; [9]
  Plant response rating, Velvetleaf: 0
[2]; [10]
  Plant response rating, Velvetleaf: 0
[3]; [7]
  Plant response rating, Foxtail, Giant: 0
[3]; [8]
  Plant response rating, Foxtail, Giant: 0
[3]; [9]
  Plant response rating, Foxtail, Giant: 0
[3]; [10]
  Plant response rating, Foxtail, Giant: 0
[4]; [7]
  Plant response rating, Pigweed: 55
[4]; [8]
  Plant response rating, Pigweed: 75
[4]; [9]
  Plant response rating, Pigweed: 0
[4]; [10]
  Plant response rating, Pigweed: 0
[5]; [7]
  Plant response rating, Crabgrass: 0
[5]; [8]
  Plant response rating, Crabgrass: 0
[5]; [9]
  Plant response rating, Crabgrass: 0
[5]; [10]
  Plant response rating, Crabgrass: 0
[6]; [7]
  Plant response rating, Morningglory: 55
[6]; [8]
  Plant response rating, Morningglory: 80
[6]; [9]
  Plant response rating, Morningglory: 0
[6]; [10]
  Plant response rating, Morningglory: 0

## COC(=O)c1nc(-c2ccc(Br)cc2)nc(N)c1Br [Compound 129]
[1]; [7]
  Plant response rating, Barnyardgrass: 0
[1]; [8]
  Plant response rating, Barnyardgrass: 0
[1]; [9]
  Plant response rating, Barnyardgrass: 0
[1]; [10]
  Plant response rating, Barnyardgrass: 0
[2]; [7]
  Plant response rating, Velvetleaf: 80
[2]; [8]
  Plant response rating, Velvetleaf: 90
[2]; [9]
  Plant response rating, Velvetleaf: 0
[2]; [10]
  Plant response rating, Velvetleaf: 5
[3]; [7]
  Plant response rating, Foxtail, Giant: 0
[3]; [8]
  Plant response rating, Foxtail, Giant: 0
[3]; [9]
  Plant response rating, Foxtail, Giant: 0
[3]; [10]
  Plant response rating, Foxtail, Giant: 0
[4]; [7]
  Plant response rating, Pigweed: 80
[4]; [8]
  Plant response rating, Pigweed: 85
[4]; [9]
  Plant response rating, Pigweed: 0
[4]; [10]
  Plant response rating, Pigweed: 15
[5]; [7]
  Plant response rating, Crabgrass: 0
[5]; [8]
  Plant response rating, Crabgrass: 0
[5]; [9]
  Plant response rating, Crabgrass: 0
[5]; [10]
  Plant response rating, Crabgrass: 0
[6]; [7]
  Plant response rating, Morningglory: 60
[6]; [8]
  Plant response rating, Morningglory: 70
[6]; [9]
  Plant response rating, Morningglory: 0
[6]; [10]
  Plant response rating, Morningglory: 0
